In PubChem BioAssay AID330 (DTP/NCI, 2004) one finds T/C data, which are given here for 27 compounds.

Values joined by “and” are separate entries in the source; they are usually repeats but may differ in a detail not shown here. Equal values may be shown once. Toxic doses and inconclusive results are not listed.

The subject of this assay is P388 leukemia ip, CD2F1 mice, survival T/C. Nature of the assay: NCI In Vivo Anticancer Drug Screen. Data for tumor model P388 Leukemia (intraperitoneal) in CD2F1 (CDF1) mice. Conditions: endpoint: median survival time, higher = longer survival. In outline:
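Mice carrying the transplanted tumor received test compound or vehicle. Survival was recorded in each group, and the value is the treated-group measurement divided by that of the vehicle-treated control group.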

Where [1] appears, read: dose: 12.5 mg/kg/injection, schedule: Q01DX005 (ip), vehicle: saline with Tween-80.
Setting [2] is: dose: 25.0 mg/kg/injection, schedule: Q01DX005 (ip), vehicle: saline with Tween-80.
Setting [3] is: dose: 50.0 mg/kg/injection, schedule: Q01DX005 (ip), vehicle: saline with Tween-80.
Where [4] appears, read: dose: 50.0 mg/kg/injection, schedule: Q01DX009 (ip), vehicle: saline.
Setting [5] is: dose: 100.0 mg/kg/injection, schedule: Q01DX009 (ip), vehicle: saline.
Setting [6] is: dose: 200.0 mg/kg/injection, schedule: Q01DX009 (ip), vehicle: saline.
Where [7] appears, read: dose: 50.0 mg/kg/injection, schedule: Q01DX005 (ip), vehicle: Klucel (hydroxypropylcellulose) (HPC).
The mark [8] stands for this setting: dose: 100.0 mg/kg/injection, schedule: Q01DX005 (ip), vehicle: Klucel (hydroxypropylcellulose) (HPC).
Setting [9] is: dose: 200.0 mg/kg/injection, schedule: Q01DX005 (ip), vehicle: Klucel (hydroxypropylcellulose) (HPC).
Where [10] appears, read: dose: 50.0 mg/kg/injection, schedule: Q01DX009 (ip), vehicle: saline with Tween-80.
[11] abbreviates: dose: 100.0 mg/kg/injection, schedule: Q01DX009 (ip), vehicle: saline with Tween-80.
Where [12] appears, read: dose: 200.0 mg/kg/injection, schedule: Q01DX009 (ip), vehicle: saline with Tween-80.
Where [13] appears, read: dose: 50.0 mg/kg/injection, schedule: Q01DX009 (ip), vehicle: Klucel (hydroxypropylcellulose) (HPC).
Where [14] appears, read: dose: 200.0 mg/kg/injection, schedule: Q01DX009 (ip), vehicle: Klucel (hydroxypropylcellulose) (HPC).
[15] abbreviates: dose: 400.0 mg/kg/injection, schedule: Q01DX009 (ip), vehicle: saline with Tween-80.
[16] abbreviates: dose: 100.0 mg/kg/injection, schedule: Q01DX009 (ip), vehicle: Klucel (hydroxypropylcellulose) (HPC).

Turning to `CC(C)c1ccc(C[n+]2ccccc2/C=N/O)cc1`, the T/C under setting [1] is 100 % of control, the T/C under setting [2] is 95 % of control and the T/C under setting [3] was 103 % of control.
Regarding `CC1(C)SC2C(NC(=O)C(N)c3ccc(O)cc3)C(=O)N2C1C(=O)O` (stereo unspecified), the T/C under setting [4] is 113 % of control, the T/C under setting [5] was 116 % of control and the T/C under setting [6] was 113 % of control.
For `O=C(NCCCN1CC1)C(=O)NCCCN1CC1`, the T/C is, setting by setting: (dose: 0.78 mg/kg/injection, schedule: Q01DX009 (ip), vehicle: saline) 156 % of control; (dose: 1.56 mg/kg/injection, schedule: Q01DX009 (ip), vehicle: saline) 190 % of control; (dose: 3.13 mg/kg/injection, schedule: Q01DX009 (ip), vehicle: saline) 190 % of control.
`COc1ccc(/C=C/c2ccnnc2)cc1`: the T/C under setting [4] is 99 % of control and 102 % of control; the T/C under setting [5] is 108 % of control; the T/C under setting [6] is 99 % of control and 94 % of control.
On to `COc1ccc([B-]23OCC[N+]2(CNC(=O)C2=C(O)C4(O)C(=O)C5=C(O)c6c(O)cccc6C(C)(O)C5CC4C(N(C)C)C2=O)CCO3)cc1` (stereo unspecified), for which the T/C is, setting by setting: under setting [7], 105 % of control; under setting [8], 105 % of control; under setting [9], 105 % of control.
Consider `CN1CCOC(N2CCOCC2)C(C)(C)C1` (stereo unspecified), for which the T/C is 92 % of control (dose: 50.0 mg/kg/injection, schedule: Q01DX005 (ip), vehicle: saline); 88 % of control (dose: 100.0 mg/kg/injection, schedule: Q01DX005 (ip), vehicle: saline); 100 % of control (dose: 200.0 mg/kg/injection, schedule: Q01DX005 (ip), vehicle: saline).
As to `Nc1ccccc1Sc1cc(Cl)nnc1Cl`, the T/C by setting is: under setting [10], 93 % of control; under setting [11], 95 % of control; under setting [12], 99 % of control.
As to `O=C1Cc2ccccc2CC1CC1Cc2ccccc2CC1=O` (stereo unspecified), the T/C runs as follows: under setting [13], 87 % of control; under setting [14], 91 % of control.
For `CCn1cnc(=O)[nH]c1=O`, the T/C is 102 % of control under setting [7], 96 % of control under setting [8] and 97 % of control under setting [9].
Regarding `O=C(CC(c1ccccc1)c1ccccc1)c1ccccc1`, the T/C by setting is: under setting [10], 86 % of control; under setting [11], 90 % of control; under setting [12], 88 % of control; under setting [15], 89 % of control.
For `CNC1C(O)C2Oc3c(cc(O)c4c3C(=O)c3cc5c(c(O)c3C4=O)C(OC3OC(C)C(OC)C(C)(OC)C3OC)CC(C)(O)C5)C(C)(O2)C1O` (stereo unspecified), the T/C (dose: 2.06 mg/kg/injection, schedule: Q04DX003 (ip), vehicle: other) is 97 % of control; the T/C (dose: 4.12 mg/kg/injection, schedule: Q04DX003 (ip), vehicle: other) is 102 % of control; the T/C (dose: 8.25 mg/kg/injection, schedule: Q04DX003 (ip), vehicle: other) was 103 % of control; the T/C (dose: 16.5 mg/kg/injection, schedule: Q04DX003 (ip), vehicle: other) is 124 % of control; the T/C (dose: 33.0 mg/kg/injection, schedule: Q04DX003 (ip), vehicle: other) is 124 % of control.
As for `C/C(=N\SC(c1ccccc1)(c1ccccc1)c1ccccc1)c1ccccc1`, the T/C runs as follows: (dose: 100.0 mg/kg/injection, schedule: Q01DX001 (ip), vehicle: saline with Tween-80) 95 % of control; (dose: 200.0 mg/kg/injection, schedule: Q01DX001 (ip), vehicle: saline with Tween-80) 88 % of control.
As to `CCn1cc(C(=O)O)c(=O)c2ccc(-c3cn(C)nc3C)nc21` (tested in a mixture with another compound), the T/C (dose: 50.0 mg/kg/injection, schedule: Q04DX002 (ip), vehicle: saline) is 99 % of control; the T/C (dose: 100.0 mg/kg/injection, schedule: Q04DX002 (ip), vehicle: saline) was 99 % of control; the T/C (dose: 200.0 mg/kg/injection, schedule: Q04DX002 (ip), vehicle: saline) was 98 % of control.
On to `CCN(CC)CCNC(=O)c1ccc2c(c1)C(=O)c1ccccc1C2=O`, for which the T/C is 108 % of control (dose: 100.0 mg/kg/injection, schedule: Q04DX003 (ip), vehicle: saline) and 119 % of control (dose: 200.0 mg/kg/injection, schedule: Q04DX003 (ip), vehicle: saline).
In the case of `COc1cc2cc(-c3ccc4c(c3)OCO4)[n+](C)cc2cc1OC`, the T/C runs as follows: (dose: 6.25 mg/kg/injection, schedule: Q01DX001 (ip), vehicle: Klucel (hydroxypropylcellulose) (HPC)) 100 % of control; (dose: 12.5 mg/kg/injection, schedule: Q01DX001 (ip), vehicle: Klucel (hydroxypropylcellulose) (HPC)) 107 % of control; (dose: 25.0 mg/kg/injection, schedule: Q01DX001 (ip), vehicle: Klucel (hydroxypropylcellulose) (HPC)) 110 % of control; (dose: 50.0 mg/kg/injection, schedule: Q01DX001 (ip), vehicle: Klucel (hydroxypropylcellulose) (HPC)) 96 % of control.
Take `CNC(=O)CCCCC(=O)NC`: the T/C was 96 % of control under setting [10], 104 % of control under setting [11], 114 % of control under setting [12] and 96 % of control under setting [15].
With `CCn1c2ccccc2c2cc(N=Cc3cccc([N+](=O)[O-])c3)ccc21`, the T/C runs as follows: under setting [10], 97 % of control; under setting [11], 98 % of control; under setting [12], 88 % of control.
With `CC(C)C(C#N)(C(=O)O)C(C)C`, the T/C by setting is: under setting [10], 95 % of control; under setting [11], 92 % of control.
Regarding `CCC1(C)CCC2(C)C(CCC3C4(C)CCCC32OC4=O)C1` (stereo unspecified), the T/C was 96 % of control (dose: 25.0 mg/kg/injection, schedule: Q01DX005 (ip), vehicle: Klucel (hydroxypropylcellulose) (HPC)); 99 % of control under setting [7]; 101 % of control and 103 % of control under setting [8]; 99 % of control under setting [9].
For `C[n+]1ccc(/C(C#N)=N/O)cc1`, the T/C under setting [13] is 119 % of control, the T/C under setting [16] is 110 % of control and the T/C under setting [14] is 109 % of control.
In the case of `CCCCCN(CCCCC)CC(O)c1c(Cl)ccc2ccccc12` (stereo unspecified), the T/C runs as follows: under setting [1], 106 % of control; under setting [2], 103 % of control; under setting [3], 103 % of control and 97 % of control; (dose: 100.0 mg/kg/injection, schedule: Q01DX005 (ip), vehicle: saline with Tween-80) 106 % of control; (dose: 200.0 mg/kg/injection, schedule: Q01DX005 (ip), vehicle: saline with Tween-80) 112 % of control.
For the compound `COc1cc2cc3c4ccc(OC)c(OC)c4cc[n+]3c(C)c2cc1OC` (tested in a mixture with another compound), the T/C (dose: 12.5 mg/kg/injection, schedule: Q01DX009 (ip), vehicle: saline with Tween-80) is 150 % of control; the T/C (dose: 25.0 mg/kg/injection, schedule: Q01DX009 (ip), vehicle: saline with Tween-80) is 164 % of control; the T/C under setting [10] is 174 % of control; the T/C under setting [11] was 209 % of control.
Turning to `CCCCn1c(C)nc2cc(C(F)(F)F)cc(N)c21`, the T/C by setting is: under setting [10], 99 % of control; under setting [11], 101 % of control; under setting [12], 108 % of control.
In the case of `CCn1c2ccccc2c2cc(N)c(N=Nc3ccc(N(C)C)cc3)cc21`, the T/C is 113 % of control under setting [13], 105 % of control under setting [16] and 103 % of control under setting [14].
With `CCN(CC)CCOc1ccc(C=Nc2ccc3c4ccccc4n(CC)c3c2)cc1`, the T/C was 100 % of control (dose: 100.0 mg/kg/injection, schedule: Q01DX001 (ip), vehicle: Klucel (hydroxypropylcellulose) (HPC)); 100 % of control (dose: 200.0 mg/kg/injection, schedule: Q01DX001 (ip), vehicle: Klucel (hydroxypropylcellulose) (HPC)); 99 % of control (dose: 400.0 mg/kg/injection, schedule: Q01DX001 (ip), vehicle: Klucel (hydroxypropylcellulose) (HPC)).
With `Nc1[nH]c(=O)[nH]c(=O)c1N`, the T/C runs as follows: under setting [10], 100 % of control; under setting [11], 100 % of control; under setting [12], 100 % of control.
As for `COC(=O)C1=C(C)NC(C)=C(C(=O)OCCCN2CCC(c3ccccc3)(c3ccccc3)CC2)C1c1cccc([N+](=O)[O-])c1` (stereo unspecified), the T/C by setting is: (dose: 15.0 mg/kg/injection, schedule: Q01DX005 (ip), vehicle: saline with Tween-80) 100 % of control; (dose: 30.0 mg/kg/injection, schedule: Q01DX005 (ip), vehicle: saline with Tween-80) 103 % of control; (dose: 60.0 mg/kg/injection, schedule: Q01DX005 (ip), vehicle: saline with Tween-80) 99 % of control.
